# Reference: patent US11414437B2, “Borate compound, and synthesis method therefor and uses thereof” (CHENGDU ORIGIN BIOTECHNOLOGY LIMITED COMPANY, priority 2017, dated 2022)
# Where a name gives a salt, the structure may show the parent alone. Read-outs that look alike come from different tables or passages of the source.
# What was measured:
# [1] = tested on: MM.1S human multiple myeloma SCID mouse transplanted tumor; experiment: Pharmacodynamic test, SCID mouse transplanted tumor model; assay type: in vivo; settings: 0.0166 mmol/kg intragastric; for Average tumor relative volume RVT5 / Average tumor relative volume RVT8 / Average tumor relative volume RVT12 / Average tumor relative volume RVT15 / Average tumor relative volume RVT18: twice a week; for Average tumor relative volume RVT5 / Average tumor relative volume RVT8 / Average tumor relative volume RVT12 / Average tumor relative volume RVT15 / Average tumor relative volume RVT18 / Tumor weight (g): X ± SD; for Tumor weight (g): after the 18th day
# Experimental: In the experiment, a SCID mouse transplanted tumor model of a human multiple myeloma cell line MM.1S was used. Specific modeling steps were as follows: frozen MM.1S cells were resuscitated and cultured in vitro according to a routine, and the cells were collected in a logarithmic growth phase, and diluted with PBS to form a tumor cell suspension with a concentration of 5×10^7/ml. […] About 1 week to 2 weeks after injection, the mass was palpable in axillary, and in vivo passage was performed when a tumor volume was larger than 500 mm^3. After the mouse was killed by a neck pulling method, a body surface was disinfected, skin was cut open, aseptic operation was performed, a tumor tissue was peeled off from an axillary subcutaneous tissue, a fibrous capsule was removed, and the tumor was taken out. The tumor was washed clean in normal saline, and then cut, and after removing the central necrotic part, the tumor tissue with good growth, reddish color and fish flesh shape was selected, then was cut into 1 mm×1 mm×1 mm small pieces, and placed in normal saline for later use. The cut tumor was placed in a mouth of a No. 18 trocar, iodized cotton was used to disinfect the side of the armpit close to the back of the mouse, and local inoculation was performed. The transplanted tumor used in the test was the 4th generation of in vivo passage. When the tumor volume of most SCID mice of in vivo passage was larger than 100 mm^3, the tumor volume was measured and calculated, and the mice were randomly grouped according to the tumor volume.
# The administration mode was intragastric administration through mouth, with an administration volume of 10 ml/kg. The model control group was given the same volume of solvent intragastrically. The mice were all intragastrically administrated through mouth twice a week for a total of 5 times, i.e., the mice were administrated at the 1st, 5th, 8th, 12th and 15th days of the experiment, with a duration of 18 days.
# Doses of different tested samples were equimolar, with a specific dose of 0.0166 mmol/kg; and the model control group was only given normal saline. The medicines were 8b and 8l, as well as Ixazomib Citrate (MLN9708) and Ixazomib (MLN2238).
# On the 5th, 8th, 12th, 15th and 18th days after administration, a short diameter (a) and a long diameter (b) of the tumor of each mouse were measured with a vernier caliper, and the tumor volume was calculated according to a formula (a^2×b)/2. A relative tumor volume (RTV) was calculated based on the tumor volume measured and calculated, RTV=Vt/V0. V0 was the tumor volume at random grouping (i.e., d0) and Vt was the tumor volume at each measurement (i.e., dn). A relative tumor proliferation rate of an anti-tumor activity evaluation index was calculated according to the following formula: relative tumor proliferation rate T/C (%): […]
# (Note: TRTV was a RTV of the treatment group; and CRTV was a RTV of the model control group. An evaluation standard of a curative effect was T/C %≤40%, and the medicine was effective when P<0.05 after statistical treatment).
# After weighing and measuring the tumor on the 18th day, all animals were sacrificed, and the tumor was taken and weighed.
# SD rats = settings: for maximum tolerance dose: female rats, single intragastric dose
# Text: The test was a single-dose toxicity test of SD rats by intragastric administration through mouth.
# [2] = tested on: RPMI-8226 (human multiple myeloma cell); experiment: In vitro activity test (CCK-8 cell growth inhibition); assay type: cell-based; settings: 48 hours incubation
# Experimental: (§1) Cells RPMI-8226 (human multiple myeloma cell) and MM.1S (human multiple myeloma cell) were cultured in a RPMI 1640 medium containing 10% fetal bovine serum at 37[…] under 5% CO2 to a logarithmic growth phase. The cells were respectively inoculated into a 96-well culture plate in a quantity of 3×10^4/well. After culturing for 24 hours at 37[…] under 5% CO2, a solvent control DMSO (dimethyl sulfoxide) or a tested compound (the tested compound taken 0.3 μM as an initial concentration, was diluted 3 times each time, and was diluted 5 times in total to obtain 6 concentration gradients) dissolved in the DMSO was added into the cells. The tested compound was incubated with the cells for 48 hours at 37[…] under 5% CO2. A CCK-8 reagent was added into each well, and incubated at 37 °C for 2 hours according to a reagent specification, and an optical density value of each well was read at a wavelength of 450 nm using a spectrophotometer.
# (§2) An optical density value of the cells when the medicine acted for 0 hour was set as a Tz value, which represented a value of the cells when the medicine was added. The optical density value of the cells when the solvent control DMSO acted for 48 hours was set as a C value; and the optical density value of the cells when the tested compound acted for 48 hours was set as a Ti value. According to a method proposed by the NIH-NCI (National Institutes of Health-National Cancer Institute) of the United States, a response of the cells to a medicine was calculated: when Ti≥Tz, the response was [(Ti−Tz)/(C−Tz)]×100; and when Ti<Tz, the response was [(Ti−Tz)/Tz]×100. According to the calculation above, a GI50 value (a concentration of the tested compound required when a cell growth inhibition rate was 50%) was calculated by the 4 Parameter Logistic Model in the XLfit software.
# [3] = tested on: MM.1S (human multiple myeloma cell); experiment: as above; assay type: cell-based; settings: MM1.S, 48 hours incubation, read-out: MM.IS cell GI50 (μM) value
# Experimental: as §1, §2
# [4] = dose 1, 0.001108 mmol/kg single intragastric dose, 6 female rats, 14 days observation
# [5] = dose 1, 0.001108 mmol/kg single intragastric dose, 6 male rats, 14 days observation
# [6] = dose 2, 0.001662 mmol/kg single intragastric dose, 6 female rats, 14 days observation
# [7] = dose 2, 0.001662 mmol/kg single intragastric dose, 6 male rats, 14 days observation
# [8] = dose 4, 0.00277 mmol/kg single intragastric dose, 6 female rats, 14 days observation
# [9] = dose 4, 0.00277 mmol/kg single intragastric dose, 6 male rats, 14 days observation
# [10] = dose 3, 0.002216 mmol/kg single intragastric dose, 6 female rats, 14 days observation
# [11] = dose 3, 0.002216 mmol/kg single intragastric dose, 6 male rats, 14 days observation
# [12] = female, rat, in vivo, 0.001108 mmol/kg, 14 days
# [13] = male, rat, in vivo, 0.001108 mmol/kg, 14 days
# [14] = male, rat, in vivo, 0.002216 mmol/kg, 14 days
SMILES,Relative tumor proliferation rate T/C(%) ([1]; 5th day),Average tumor relative volume RVT5 ([1]; 5th day),Relative tumor proliferation rate T/C(%) ([1]; 8th day),Average tumor relative volume RVT8 ([1]; 8th day),Relative tumor proliferation rate T/C(%) ([1]; 12th day),Average tumor relative volume RVT12 ([1]; 12th day),Relative tumor proliferation rate T/C(%) ([1]; 15th day),Average tumor relative volume RVT15 ([1]; 15th day),Relative tumor proliferation rate T/C(%) ([1]; 18th day),Average tumor relative volume RVT18 ([1]; 18th day),Female Suvival (SD rats; [4]),Male Suvival (SD rats; [5]),Female Death (SD rats; [6]),Female Suvival (SD rats; [6]),Male Death (SD rats; [7]),Male Suvival (SD rats; [7]),Female Death (SD rats; [8]),Female Suvival (SD rats; [8]),Male Death (SD rats; [9]),Male Suvival (SD rats; [9]),also measured
"CC(C)C[C@H](NC(=O)CNC(=O)c1cc(Cl)ccc1Cl)B(O)O [Ixazomib (MLN2238), Ixazomib]",87.8^★★ %,1.522 ± 0.273^★★,45.44^★ %,1.238 ± 0.841^★▴▴,22.51^★★ %,0.898 ± 0.749^★★▴▴,10.8^★★ %,0.489 ± 0.343^★★▴▴,2.43^★★ %,0.163 ± 0.132^★★▴▴,6,6,2,4,0,6,6,0,0,6,"Tumor weight (g) [1]: 0.374 ± 0.291^★★ g; Female Death (SD rats; [4]): 0; Male Death (SD rats; [5]): 0; maximum tolerance dose (SD rats): 0.001108 mmol/kg; Female Death (SD rats; rat, in vivo): 4; Female Suvival (SD rats; rat, in vivo): 2; Male Death (SD rats; rat, in vivo): 0; Male Suvival (SD rats; rat, in vivo): 6"
"CC(C)C[C@H](NC(=O)CNC(=O)c1cc(Cl)ccc1Cl)B1OC(=O)C(CC(=O)O)(CC(=O)O)O1 [Ixazomib (MLN9708), Ixazomib Citrate]",82.56^★★ %,1.431 ± 0.452^★★,20.94%,0.571 ± 0.305,6.13^★★ %,0.245 ± 0.123^★★▴▴,4.42^★★ %,0.214 ± 0.133^★★▴▴,3.06^★★ %,0.205 ± 00.151^★★▴▴,6,6,1,5,0,6,6,0,0,6,"Tumor weight (g) [1]: 0.284 ± 0.312^★ g; Female Death (SD rats; [4]): 0; Male Death (SD rats; [5]): 0; maximum tolerance dose (SD rats): 0.001108 mmol/kg; Female Death (SD rats; rat, in vivo): 3; Female Suvival (SD rats; rat, in vivo): 3; Male Death (SD rats; rat, in vivo): 0; Male Suvival (SD rats; rat, in vivo): 6"
CC(C)C[C@H](NC(=O)CNC(=O)c1cc(Br)ccc1Cl)B1OCCNCCO1 [compound 8d],–,–,–,–,–,–,–,–,–,–,6,6,2,4,0,6,6,0,0,6,Female Death (SD rats; [10]): 5; Female Suvival (SD rats; [10]): 1; Male Suvival (SD rats; [11]): 6; Female Death (SD rats; [12]): 0; Male Death (SD rats; [13]): 0; Male Death (SD rats; [14]): 0
"CC(C)C[C@H](NC(=O)CNC(=O)c1cc(Cl)ccc1Cl)B1OC(=O)[C@@H](c2ccccc2)O1 [compound 8l, 2-chloro-5-chloro-N-[2-({(1R)-3-methyl-1-[(5R)-4-oxo-5-phenyl-1,3,2-dioxaborolan-2-yl]butyl}amino)-2-oxoethyl]benzamide]",103.30^★★ %,1.791 ± 0.540^★★,63.82^★★ %,1.739 ± 0.783^★★▴,36.37^★★ %,1.451 ± 0.676^★★▴▴,23.24^★★ %,1.127 ± 0.667^★★▴▴,8.38^★ %,0.561 ± 0.468^★★▴▴,6,6,1,5,0,6,6,0,0,6,Tumor weight (g) [1]: 0.560 ± 0.566^★ g; Female Death (SD rats; [10]): 2; Female Suvival (SD rats; [10]): 4; Male Suvival (SD rats; [11]): 6; maximum tolerance dose (SD rats): 0.001108 mmol/kg; Female Death (SD rats; [12]): 0; Male Death (SD rats; [13]): 0; Male Death (SD rats; [14]): 0
CC(C)C[C@H](NC(=O)CNC(=O)c1cc(Br)ccc1Cl)B1OC(=O)c2ccccc2O1 [drawing 39],–,–,–,–,–,–,–,–,–,–,–,–,–,–,–,–,–,–,–,–,GI50 [2]: 0.00619 µM; GI50 [3]: 0.00209 µM
